Measured values published in the supplement of paper PMC10307832.

Columns and labels:
Experiment in all cases: relative viability (nuclei count vs DMSO), 5 days (fraction); higher = more cells survive
Crenolanib = compound: CC1(COc2ccc3c(c2)ncn3-c2ccc3cccc(N4CCC(N)CC4)c3n2)COC1 [Crenolanib]
Procedure, shortened: (§1)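 Lung cancer cell lines in 1536-well plates were exposed by pinning to five library-drug doses (not always all listed) √10 apart, following an overnight hold at 37 °C. MetaXpress counted Hoechst-stained nuclei from 4× images taken after 5 days without medium change. Viability is the median ratio of treated-well to vehicle-well nuclei across plates. Plates required control CV below 25% and at least one doubling.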

Tivantinib = compound: O=C1NC(=O)[C@@H](c2cn3c4c(cccc24)CCC3)[C@@H]1c1c[nH]c2ccccc12 [Tivantinib]
Procedure, shortened: as §1

Crenolanib + Navitoclax = compound: CC1(COc2ccc3c(c2)ncn3-c2ccc3cccc(N4CCC(N)CC4)c3n2)COC1 [Crenolanib] + CC1(C)CCC(c2ccc(Cl)cc2)=C(CN2CCN(c3ccc(C(=O)NS(=O)(=O)c4ccc(N[C@H](CCN5CCOCC5)CSc5ccccc5)c(S(=O)(=O)C(F)(F)F)c4)cc3)CC2)C1 [Navitoclax] (partner 0.5 µM)
Procedure, shortened: (§2)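 The day after seeding in 1536-well plates, lung cancer cell lines were treated by pin tool with a single drug, or with a fixed anchor-drug dose together with five library-drug doses (not always all listed) in √10 steps. After 5 days, a combined fix-and-stain solution (final 0.05% Triton X-100, 1% formaldehyde, 1 ug/ml Hoechst) was added. Nuclei counted on 4× images gave relative viability as treated counts over vehicle counts, reported as the median of duplicate plates.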

Crenolanib + Foretinib = compound: CC1(COc2ccc3c(c2)ncn3-c2ccc3cccc(N4CCC(N)CC4)c3n2)COC1 [Crenolanib] + COc1cc2c(Oc3ccc(NC(=O)C4(C(=O)Nc5ccc(F)cc5)CC4)cc3F)ccnc2cc1OCCCN1CCOCC1 [Foretinib] (partner 0.25 µM)
Procedure, shortened: as §2

Row | Cell Line | relative viability (Crenolanib; 0.01 µM) | relative viability (Crenolanib; 0.03162 µM) | relative viability (Crenolanib; 0.1 µM) | relative viability (Crenolanib; 0.3162 µM) | relative viability (Crenolanib; 1 µM) | relative viability (Tivantinib; 0.01 µM) | relative viability (Tivantinib; 0.03162 µM) | relative viability (Tivantinib; 0.1 µM) | relative viability (Tivantinib; 0.3162 µM) | relative viability (Crenolanib + Navitoclax; first compound 0.01 µM) | relative viability (Crenolanib + Navitoclax; first compound 0.03162 µM) | relative viability (Crenolanib + Navitoclax; first compound 0.1 µM) | relative viability (Crenolanib + Navitoclax; first compound 0.3162 µM) | relative viability (Crenolanib + Navitoclax; first compound 1 µM) | relative viability (Crenolanib + Foretinib; first compound 0.01 µM) | relative viability (Crenolanib + Foretinib; first compound 0.03162 µM) | relative viability (Crenolanib + Foretinib; first compound 0.1 µM) | relative viability (Crenolanib + Foretinib; first compound 0.3162 µM) | relative viability (Crenolanib + Foretinib; first compound 1 µM)
1 | LOU-NH91 | 1.02 | 0.939 | 0.929 | 0.891 | 0.906 | 0.932 | 0.946 | 1.02 | 0.747 | 0.853 | 0.702 | 0.645 | 0.641 | 0.737 | 0.969 | 0.914 | 0.893 | 0.888 | 0.892
2 | NCI-H1734 | 0.947 | 1.02 | 0.988 | 1.02 | 0.916 | 0.946 | 0.878 | 1.08 | 1.01 | 0.846 | 0.778 | 0.796 | 0.952 | 0.886 | 1.02 | 0.773 | 0.859 | 0.925 | 0.876
3 | LCLC-97TM1 | 1.12 | 0.903 | 0.93 | 1.05 | 0.921 | 1.02 | 0.813 | 0.961 | 0.871 | 0.489 | 0.525 | 0.489 | 0.473 | 0.445 | 1.01 | 0.867 | 0.958 | 0.979 | 0.971
4 | RERF-LC-KJ | 1.04 | 1.01 | 1 | 1.06 | 1.02 | 1.01 | 1.03 | 0.996 | 0.763 | 0.962 | 0.729 | 1.04 | 1.33 | 0.948 | 0.852 | 0.838 | 0.906 | 0.968 | 0.909
5 | BEN | 0.989 | 0.877 | 0.962 | 0.988 | 0.965 | 1 | 0.854 | 0.873 | 0.786 | 0.0589 | 0.0559 | 0.0723 | 0.0658 | 0.0687 | 0.84 | 0.44 | 0.659 | 0.819 | 0.656
6 | NCI-H1703 | 0.948 | 0.759 | 0.534 | 0.313 | 0.21 | 1.22 | 0.923 | 0.895 | 0.795 | 1 | 0.657 | 0.286 | 0.254 | 0.198 | 0.32 | 0.293 | 0.321 | 0.313 | 0.269
7 | SW 1573 | 1.01 | 1.01 | 0.955 | 1.01 | 0.986 | 1.02 | 0.866 | 0.981 | 0.958 | 1.11 | 1.17 | 0.867 | 1.03 | 1.23 | 1.04 | 0.918 | 0.943 | 0.9 | 0.966
8 | ChaGo-K-1 | 0.933 | 0.977 | 0.941 | 0.931 | 0.937 | 0.982 | 1.01 | 0.968 | 0.909 | 0.674 | 0.917 | 1 | 0.844 | 1 | 0.952 | 0.942 | 0.922 | 0.894 | 0.84
9 | COR-L 105 | 1.03 | 0.953 | 0.852 | 0.963 | 0.915 | 0.912 | 0.734 | 0.892 | 0.537 | 0.766 | 0.778 | 0.713 | 0.975 | 0.884 | 0.972 | 1.18 | 0.848 | 1.32 | 1.05
10 | NCI-H1993 | 0.985 | 0.889 | 0.919 | 1.06 | 0.925 | 1 | 0.897 | 0.927 | 0.721 | 0.994 | 0.92 | 0.825 | 0.897 | 0.884 | 0.768 | 0.551 | 0.719 | 0.889 | 0.731
11 | Calu-6 | 1.1 | 0.992 | 0.978 | 1.08 | 0.959 | 0.989 | 1.03 | 0.977 | 0.989 | 1.02 | 0.781 | 0.826 | 0.941 | 0.838 | 0.881 | 0.774 | 0.828 | 0.956 | 0.976
12 | NCI-H2009 | 1.05 | 1.02 | 0.991 | 0.991 | 0.89 | 0.985 | 0.954 | 0.967 | 1.07 | 1.2 | 1.17 | 1.13 | 1.24 | 1.01 | 1.25 | 1.21 | 1.09 | 1.27 | 1.1
13 | SK-LU-1 | 1.03 | 1.04 | 0.755 | 1.08 | 1.04 | 1.08 | 1.08 | 0.987 | 1.01 | 0.923 | 1.02 | 0.472 | 1.05 | 0.803 | 0.802 | 0.779 | 0.538 | 0.964 | 0.905
14 | NCI-H2347 | 1.08 | 0.934 | 0.758 | 1.1 | 1.03 | 1.16 | 0.988 | 1.02 | 1.07 | 0.835 | 0.815 | 0.478 | 0.885 | 0.865 | 0.879 | 0.757 |  | 1.02 | 0.901
15 | EMC-BAC-2 | 1.08 |  | 0.994 | 1.13 | 0.84 | 1.01 | 0.962 | 0.997 | 0.998 | 1.22 | 1.21 | 1.09 | 1.36 | 1.16 | 1.05 | 0.997 | 1.03 | 1.11 | 1.07
16 | NCI-H3122 | 1.02 | 0.989 | 0.98 | 1.1 | 1.1 | 0.986 | 1 | 0.923 | 0.877 | 0.987 | 1 | 0.985 | 1.04 | 1 | 0.927 | 0.98 | 0.985 | 0.963 | 1.04
17 | NCI-H1944 | 1.06 | 0.934 | 0.964 | 0.985 | 0.773 | 0.922 | 0.875 | 0.882 | 0.717 | 0.987 | 1.03 | 1.04 | 1.13 | 1.03 | 0.857 | 0.865 | 0.872 | 0.887 | 0.817
